Data published in patent US10189841B2, “Purinones as ubiquitin-specific protease 1 inhibitors” (Forma Therapeutics, Inc., priority 2015, dated 2019).

What follows are molecules tested against USP1 (construct USP1 (I-785, GG670, 671AA)/UAF1 (I-677)-Flag) (Homo sapiens (Human), UniProt O94782, G670A/G671A) (assay: Ubiquitin-Rhodamine 110 assay for USP1 activity). Settings: USP1/UAF1 25 pM, Ub-Rh110 25 nM, 30 min preincubation.
Type: biochemical
Summary of the method: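 Two formats with the USP1/UAF1 complex and 25 nM ubiquitin-rhodamine 110 in pH 8.0 Tris buffer with calcium, glutathione and detergent. Single-point screening used 10 µM, 100 pM enzyme and 45 min. Inhibition was set against no-enzyme and DMSO wells.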

USP1 (construct USP1 (I-785, GG670, 671AA)/UAF1 (I-677)-Flag), sequence (O94782 whole entry G670A/G671A): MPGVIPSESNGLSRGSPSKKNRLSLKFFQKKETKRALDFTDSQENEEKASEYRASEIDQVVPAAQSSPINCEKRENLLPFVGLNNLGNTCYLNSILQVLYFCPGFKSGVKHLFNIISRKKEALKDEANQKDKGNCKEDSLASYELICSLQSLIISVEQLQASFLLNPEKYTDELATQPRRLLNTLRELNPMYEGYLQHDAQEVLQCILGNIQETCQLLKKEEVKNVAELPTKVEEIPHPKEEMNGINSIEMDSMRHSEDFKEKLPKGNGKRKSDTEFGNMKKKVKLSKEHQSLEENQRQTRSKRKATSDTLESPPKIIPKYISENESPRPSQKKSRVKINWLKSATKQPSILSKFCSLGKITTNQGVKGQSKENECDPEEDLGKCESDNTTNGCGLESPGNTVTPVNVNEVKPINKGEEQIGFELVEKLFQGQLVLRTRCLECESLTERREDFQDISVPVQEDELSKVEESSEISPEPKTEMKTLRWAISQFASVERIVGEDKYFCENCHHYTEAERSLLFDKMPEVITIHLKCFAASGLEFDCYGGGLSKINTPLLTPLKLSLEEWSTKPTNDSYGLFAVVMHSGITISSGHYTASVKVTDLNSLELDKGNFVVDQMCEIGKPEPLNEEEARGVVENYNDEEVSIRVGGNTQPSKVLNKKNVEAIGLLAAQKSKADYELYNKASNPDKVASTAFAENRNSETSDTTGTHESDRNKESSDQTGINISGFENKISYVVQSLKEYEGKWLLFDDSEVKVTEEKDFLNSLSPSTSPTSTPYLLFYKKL
USP1 (construct USP1 (I-785, GG670, 671AA)/UAF1 (I-677)-Flag), sequence (Q8TAF3 whole entry partner): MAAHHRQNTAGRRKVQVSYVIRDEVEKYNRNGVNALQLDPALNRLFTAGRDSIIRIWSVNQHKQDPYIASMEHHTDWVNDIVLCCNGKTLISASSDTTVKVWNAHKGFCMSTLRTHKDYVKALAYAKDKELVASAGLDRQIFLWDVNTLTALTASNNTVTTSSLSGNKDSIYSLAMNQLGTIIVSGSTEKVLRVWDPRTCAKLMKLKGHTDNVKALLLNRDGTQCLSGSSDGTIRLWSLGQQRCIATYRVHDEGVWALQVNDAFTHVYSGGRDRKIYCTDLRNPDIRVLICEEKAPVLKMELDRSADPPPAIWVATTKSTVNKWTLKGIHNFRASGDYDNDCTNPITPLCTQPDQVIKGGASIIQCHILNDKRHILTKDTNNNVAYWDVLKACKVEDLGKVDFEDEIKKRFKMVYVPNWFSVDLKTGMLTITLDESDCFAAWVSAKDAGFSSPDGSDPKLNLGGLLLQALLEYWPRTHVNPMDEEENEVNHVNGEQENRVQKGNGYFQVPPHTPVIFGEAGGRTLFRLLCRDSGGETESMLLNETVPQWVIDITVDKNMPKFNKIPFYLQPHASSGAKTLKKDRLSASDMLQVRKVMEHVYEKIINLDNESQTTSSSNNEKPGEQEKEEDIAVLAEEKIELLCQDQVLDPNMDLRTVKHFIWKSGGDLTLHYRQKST

**Q.** For `CCOCCOc1ncccc1-c1ncc2[nH]c(=O)n(Cc3ccc(-c4nc(C(F)(F)F)cn4C)cc3)c2n1` [Compound I-415, 2-(2-(2-ethoxyethoxy)pyridin-3-yl)-9-(4-(1-methyl-4-(trifluoromethyl)-1H-imidazol-2-yl)benzyl)-7,9-dihydro-8H-purin-8-one], which IC50 is on record?
**A.** < 50 nM

**Q.** How did the IC50 turn out when `CC(C)Oc1ncccc1-c1ncc2[nH]c(=O)n(Cc3ccc(-c4nc(C(F)(F)F)cn4C)cc3)c2n1` [Compound I-416, 2-(2-isopropoxypyridin-3-yl)-9-(4-(1-methyl-4-(trifluoromethyl)-1H-imidazol-2-yl)benzyl)-7,9-dihydro-8H-purin-8-one] was run?
**A.** < 50 nM

**Q.** For `CCC(C)Oc1ncccc1-c1ncc2[nH]c(=O)n(Cc3ccc(-c4nc(C(F)(F)F)cn4C)cc3)c2n1` (stereo not shown) [Compound I-417, 2-(2-(sec-butoxy)pyridin-3-yl)-9-(4-(1-methyl-4-(trifluoromethyl)-1H-imidazol-2-yl)benzyl)-7,9-dihydro-8H-purin-8-one], which IC50 is on record?
**A.** < 50 nM

**Q.** With `CC(Oc1ncccc1-c1ncc2[nH]c(=O)n(Cc3ccc(-c4nc(C(F)(F)F)cn4C)cc3)c2n1)C(F)(F)F` (stereo not shown) [Compound I-418, 9-(4-(1-methyl-4-(trifluoromethyl)-1H-imidazol-2-yl)benzyl)-2-(2-((1,1,1-trifluoropropan-2-yl)oxy)pyridin-3-yl)-7,9-dihydro-8H-purin-8-one] as the molecule, how does the IC50 read?
**A.** < 50 nM

**Q.** `Cn1cc(C(F)(F)F)nc1-c1ccc(Cn2c(=O)[nH]c3cnc(-c4cccnc4OC4CCC4)nc32)cc1` [Compound I-419, 2-(2-cyclobutoxypyridin-3-yl)-9-(4-(1-methyl-4-(trifluoromethyl)-1H-imidazol-2-yl)benzyl)-7,9-dihydro-8H-purin-8-one] was tested. Which IC50 did it give?
**A.** < 50 nM

**Q.** `Cn1cc(C(F)(F)F)nc1-c1ccc(Cn2c(=O)[nH]c3cnc(-c4cccnc4OC4CC4)nc32)cc1` [Compound I-420, 2-(2-cyclopropoxypyridin-3-yl)-9-(4-(1-methyl-4-(trifluoromethyl)-1H-imidazol-2-yl)benzyl)-7,9-dihydro-8H-purin-8-one] was tested. Which IC50 did it give?
**A.** < 50 nM

**Q.** `CCOc1ncccc1-c1ncc2[nH]c(=O)n(Cc3ccc(-c4nc(C(F)(F)F)cn4C)cc3)c2n1` [Compound I-421, 2-(2-ethoxypyridin-3-yl)-9-(4-(1-methyl-4-(trifluoromethyl)-1H-imidazol-2-yl)benzyl)-7,9-dihydro-8H-purin-8-one] was tested. Which IC50 did it give?
**A.** < 50 nM

**Q.** For `CC(C)COc1ncccc1-c1ncc2[nH]c(=O)n(Cc3ccc(-c4nc(C(F)(F)F)cn4C)cc3)c2n1` [Compound I-422, 2-(2-isobutoxypyridin-3-yl)-9-(4-(1-methyl-4-(trifluoromethyl)-1H-imidazol-2-yl)benzyl)-7,9-dihydro-8H-purin-8-one], which IC50 is on record?
**A.** < 50 nM

**Q.** With `COCCOc1ncccc1-c1ncc2[nH]c(=O)n(Cc3ccc(-c4nc(C(F)(F)F)cn4C)cc3)c2n1` [Compound I-423, 2-(2-(2-methoxyethoxy)pyridin-3-yl)-9-(4-(1-methyl-4-(trifluoromethyl)-1H-imidazol-2-yl)benzyl)-7,9-dihydro-8H-purin-8-one] as the molecule, how does the IC50 read?
**A.** 50 to 200 nM

**Q.** With `Cn1cc(C(F)(F)F)nc1-c1ccc(Cn2c(=O)[nH]c3cnc(-c4cccnc4OCC4CCCO4)nc32)cc1` (stereo not shown) [Compound I-424, 9-(4-(1-methyl-4-(trifluoromethyl)-1H-imidazol-2-yl)benzyl)-2-(2-((tetrahydrofuran-2-yl)methoxy)pyridin-3-yl)-7,9-dihydro-8H-purin-8-one] as the molecule, how does the IC50 read?
**A.** < 50 nM

**Q.** Which IC50 does the source give for `Cn1cc(C(F)(F)F)nc1-c1ccc(Cn2c(=O)[nH]c3cnc(-c4cccnc4OCC4CCOC4)nc32)cc1` (stereo not shown) [Compound I-425, 9-(4-(1-methyl-4-(trifluoromethyl)-1H-imidazol-2-yl)benzyl)-2-(2-((tetrahydrofuran-3-yl)methoxy)pyridin-3-yl)-7,9-dihydro-8H-purin-8-one] here?
**A.** < 50 nM

**Q.** `COC(C)CCOc1ncccc1-c1ncc2[nH]c(=O)n(Cc3ccc(-c4nc(C(F)(F)F)cn4C)cc3)c2n1` (stereo not shown) [Compound I-426, 2-(2-(3-methoxybutoxy)pyridin-3-yl)-9-(4-(1-methyl-4-(trifluoromethyl)-1H-imidazol-2-yl)benzyl)-7,9-dihydro-8H-purin-8-one] was tested. Which IC50 did it give?
**A.** < 50 nM

**Q.** Which IC50 does the source give for `CCC(CC)Oc1ncccc1-c1ncc2[nH]c(=O)n(Cc3ccc(-c4nc(C(F)(F)F)cn4C)cc3)c2n1` [Compound I-427, 9-(4-(1-methyl-4-(trifluoromethyl)-1H-imidazol-2-yl)benzyl)-2-(2-(pentan-3-yloxy)pyridin-3-yl)-7,9-dihydro-8H-purin-8-one] here?
**A.** < 50 nM

**Q.** How did the IC50 turn out when `CCC(COC)Oc1ncccc1-c1ncc2[nH]c(=O)n(Cc3ccc(-c4nc(C(F)(F)F)cn4C)cc3)c2n1` (stereo not shown) [Compound I-428, 2-(2-((1-methoxybutan-2-yl)oxy)pyridin-3-yl)-9-(4-(1-methyl-4-(trifluoromethyl)-1H-imidazol-2-yl)benzyl)-7,9-dihydro-8H-purin-8-one] was run?
**A.** 50 to 200 nM

**Q.** How did the IC50 turn out when `CN(C)CCOc1ncccc1-c1ncc2[nH]c(=O)n(Cc3ccc(-c4nc(C(F)(F)F)cn4C)cc3)c2n1` [Compound I-429, 2-(2-(2-(dimethylamino)ethoxy)pyridin-3-yl)-9-(4-(1-methyl-4-(trifluoromethyl)-1H-imidazol-2-yl)benzyl)-7,9-dihydro-8H-purin-8-one] was run?
**A.** 200 to 2000 nM

**Q.** Which IC50 does the source give for `CC(C)c1ccccc1-c1ncc2[nH]c(=O)n(Cc3ccc(-c4nc(C(F)(F)F)cn4C4CNC4)cc3)c2n1` [Compound I-430, 9-(4-(1-(azetidin-3-yl)-4-(trifluoromethyl)-1H-imidazol-2-yl)benzyl)-2-(2-isopropylphenyl)-7,9-dihydro-8H-purin-8-one] here?
**A.** < 50 nM

**Q.** For `CC(C)c1ccccc1-c1ncc2[nH]c(=O)n(Cc3ccc(-n4ccc(C5CCNCC5)n4)cc3)c2n1` [Compound I-431, 2-(2-isopropylphenyl)-9-(4-(3-(piperidin-4-yl)-1H-pyrazol-1-yl)benzyl)-7,9-dihydro-8H-purin-8-one], which IC50 is on record?
**A.** 50 to 200 nM

**Q.** How did the IC50 turn out when `CC(C)c1ccccc1-c1ncc2[nH]c(=O)n(Cc3ccc(-n4ccc(N5CCNCC5)n4)cc3)c2n1` [Compound I-432, 2-(2-isopropylphenyl)-9-(4-(3-(piperazin-1-yl)-1H-pyrazol-1-yl)benzyl)-7,9-dihydro-8H-purin-8-one] was run?
**A.** 200 to 2000 nM

**Q.** Which IC50 does the source give for `CC(C)c1ccccc1-c1ncc2c(n1)n(Cc1ccc(-n3ccc(C4CCNCC4)n3)cc1)c(=O)n2C` [Compound I-433, 2-(2-isopropylphenyl)-7-methyl-9-(4-(3-(piperidin-4-yl)-1H-pyrazol-1-yl)benzyl)-7,9-dihydro-8H-purin-8-one] here?
**A.** 200 to 2000 nM

**Q.** How did the IC50 turn out when `CC(C)c1c(F)cccc1-c1ncc2[nH]c(=O)n(Cc3ccc(-n4ccc(C5CCNCC5)n4)cc3)c2n1` [Compound I-434, 2-(3-fluoro-2-isopropylphenyl)-9-(4-(3-(piperidin-4-yl)-1H-pyrazol-1-yl)benzyl)-7,9-dihydro-8H-purin-8-one] was run?
**A.** 50 to 200 nM

**Q.** How did the IC50 turn out when `CC(C)c1ncccc1-c1ncc2[nH]c(=O)n(Cc3ccc(-n4ccc(C5CCNCC5)n4)cc3)c2n1` [Compound I-435, 2-(2-isopropylpyridin-3-yl)-9-(4-(3-(piperidin-4-yl)-1H-pyrazol-1-yl)benzyl)-7,9-dihydro-8H-purin-8-one] was run?
**A.** > 2000 nM

**Q.** With `CC(C)c1ccccc1-c1ncc2c(n1)n(Cc1ccc(-c3nc(C(F)(F)F)cn3C3CNC3)cc1)c(=O)n2C` [Compound I-436, 9-(4-(1-(azetidin-3-yl)-4-(trifluoromethyl)-1H-imidazol-2-yl)benzyl)-2-(2-isopropylphenyl)-7-methyl-7,9-dihydro-8H-purin-8-one] as the molecule, how does the IC50 read?
**A.** < 50 nM
